Results as given in US20180008570A1, “METHOD OF TREATMENT OF A NEUROPATHIC PAIN” (CHAOYANG UNIVERSITY OF TECHNOLOGY, priority 2016, published 2018).
“Also recorded” adds a separate entry of the source. Structures can show the parent of a compound that is named as a salt.

Assays:
[1] = test system: male BALB/c mice with sciatic nerve transaction; test: Von Frey test, hindpaw withdrawal threshold in sciatic nerve transaction (SNT) neuropathic pain model; type: in vivo
Procedure: (§1) Lyophilized andrographolide powder is dissolved in DMSO and subsequently diluted to 2.86 mM (1 mg/mL) in 90% normal saline and 10% DMSO for storage. The mixture is injected into the peritoneum (body cavity) of each animal (intraperitoneal injection) based on 5 mg/kg animal weight, for example, a 30 g mouse is injected with 150 μL of saline containing 0.15 mg of andrographolide. NSAID drugs (Diclofenac sodium salt) may be purchased from Sigma (D6899), and diluted to 2.86 mM (0.91 mg/mL) in 90% saline and 10% DMSO for storage. The NSAID drugs is administered via intraperitoneal injection based on […] animal weight, for example, a 30 g mouse is injected with 165 μL of saline containing 0.15 mg of NSAID drugs. The number of molecules administered is less in andrographolide treated mouse than in NSAID drugs treated […]. These drugs are administered daily after surgery.
(§2) An operation for inducing the sciatic nerve transaction of BALB/c mice is processing as follows. After isoflurane anesthesia is applied to male BALB/c mice, which have about 8 weeks of age and have a weight of approximately 30 g, the skin of the right thigh is slit to expose the muscle. Then a blunt instrument is used to spread open the biceps femoris to expose the sciatic nerve and its three nerve branches, which are the sural nerve, common peroneal nerve and tibial nerve. Then a sterilized no. 4-0 chromium wire is used to tie the sciatic nerve, and approximately 2-4 mm of the ends of the common peroneal nerve and the tibial nerve are cut at a position near the tying position. Care is taken to avoid touching and stretching the sural nerve. The muscle and skin are closed in two separate layers. For sham surgery, the sciatic nerve is exposed as described above but no contact is made with the nerve. In this embodiment, the nerve is tied to a level such that there is slight sheathing of the nerve in order to avoid affecting the blood circulation in the area. The mice's behavior is observed after several days of rest.
(§3) The experiment is separated into the following groups that receive different treatments. In the normal group, no surgery is carried out and no andrographolide or NSAID drugs are administered to mice. In the pain group (OP-saline), saline is given to mice daily after surgery. In the control group (Op-NSAIDs), Diclofenac sodium salt is administered to mice daily after surgery. In the experimental group (Op-AP), an andrographolide compound is administered to mice daily after surgery. The means of administration is by intraperitoneal injection. The concentration of drugs for both the control group and the experimental group is 5 mg/kg animal weight, and the average animal weight is 30 g. For the model that uses an in vivo sciatic nerve transaction to simulate pathological pain, the mice behavior is tested on 3, 7, 14 days after surgery. The von Frey hair test is used to determinate the withdrawal threshold of the pathological pain.
Mechanical allodynia threshold at the lateral plantar surface of the hindpaw is assessed before nerve injury (as basal pain threshold) and then testing began on day 3 after surgery and continued for 7 and 14 days after surgery. Mechanical sensitivity is determined by measuring the withdrawal thresholds and reaction ratio to von Frey hairs (Stoelting, Wood Dale, Ill.) using the up and- down method (Dixon 1980) as described by Chaplan (Chaplan, Bach et al. 1994). Animals were placed in a plastic cage with a wire net floor and were allowed to habituate 10-15 min before testing began. Animals were also habituated over a period of 2-3 consecutive days by recording a series of baseline measurements. The filaments were applied in ascending order, each 5 times at an interval of 2-3 s to the plantar surface of the hindpaw (Bourquin, Suveges et al. 2006) and the smallest filament eliciting a foot withdrawal response is considered the threshold stimulus. […]

[2] = test system: male BALB/c mice with sciatic nerve transaction; test: Von Frey test, withdrawal rate (reaction types II-IV) with 0.02 g and 0.07 g fibers in SNT neuropathic pain model; type: in vivo; conditions: 5 mg/kg i.p. daily; for withdrawal rate, von Frey fiber of 0.02 g, right hindpaw: 3, 7 and 14 days after surgery
Procedure: as §1, §2, §3
Mechanical allodynia threshold at the lateral plantar surface of the hindpaw is assessed before nerve injury (as basal pain threshold) and then testing began on day 3 after surgery and continued for 7 and 14 days after surgery. Mechanical sensitivity is determined by measuring the withdrawal thresholds and reaction ratio to von Frey hairs (Stoelting, Wood Dale, Ill.) using the up and- down method (Dixon 1980) as described by Chaplan (Chaplan, Bach et al. 1994). […]

[3] = test system: glial fibrillary acidic protein (GFAP); test: GFAP immunoreactivity in spinal cord astrocytes (L4-L6), immunohistochemical staining and quantification; type: in vivo, mice; conditions: 5 mg/kg i.p. daily; 7 days after surgery; compared to OP-saline group
Procedure: The following procedure is to ascertain the activity of astrocytic glial cells of the spinal cord. The mice are deeply anaesthetized with sevoflurane and perfused transcardially with saline followed by 0.1 M phosphate buffer solution containing 4% paraformaldehyde. The L4-L6 segment of spinal cord and left and right sciatic nerves are dissected out and post-fixed in a 4% parformaldehye solution at 4° C. overnight, and transferred to a series of solution of phosphate-buffered saline (PBS), graded ethanol/PBS, xylyne, graded xylyne/wax mixture, and finally embedded in wax. A rotary slicer for tissues is used to slice the sample to a transverse section with a thickness of 3 um, and warm water is used to spread and attach to the glass slice.
The wax sections are dewaxed in a series of xylene, graded xylene/ethanol mixture, or graded ethanol mixture, and finally incubation in PBS. […]
The immunoreactivity in each group is analyzed, and the intensity of chromogen staining or fluorescence is determined by photo form 4-5 independent animals. The image of the photo is analyzed using the same settings for quantitative comparison. All measured pixels in a specific area are analyzed by the ImageJ software on 0 (black) to 255 (white) scales. The total number of pixels having a value less than 50 in the photo is calculated and used to estimate the value of immunoreactivity in the area of interest.

Structure (SMILES): C=C1CC[C@@H]2[C@](C)(CO)[C@H](O)CC[C@@]2(C)[C@@H]1C/C=C1/C(=O)OC[C@H]1O [andrographolide]
- right hindpaw withdrawal threshold ([1]; 5 mg/kg i.p. daily after surgery, 3, 7 and 14 days after surgery, compared to OP-saline group): significantly increased; also recorded: significant increase
- left hindpaw withdrawal threshold (contralateral, mirror pain) ([1]; 5 mg/kg i.p. daily, 3, 7 and 14 days after surgery, compared to saline group and NSAIDs group): significantly increased
- right hindpaw withdrawal threshold, effect compared with NSAID drugs ([1]; 5 mg/kg i.p. daily, 3 and 14 days after surgery, vs Op-NSAIDs (Diclofenac sodium salt)): more significant effect
- degree of relief from mechanical allodynia compared with same dose of NSAID drugs ([1]; 5 mg/kg i.p. daily, overall summary): better
- withdrawal rate, von Frey fiber of 0.02 g, right hindpaw ([2]; compared with Op-NSAID group): very significant lower
- withdrawal rate, von Frey fiber of 0.02 g, right hindpaw ([2]; compared with Op-saline group): very significant low
- withdrawal rate, fiber of 0.07 g, difference to Op-NSAID group ([2]; 7-14 days after surgery): significant
- withdrawal rate, fiber of 0.07 g, difference to Op-NSAID group ([2]; 3 days after surgery): not significant
- withdrawal rate, fiber of 0.07 g ([2]; compared to Op-saline group): reduced pain sensation
- GFAP immunoreactivity of the astrocytes, L4-L6 spinal area [3]: reduced trend

Structure (SMILES): O=C(O)Cc1ccccc1Nc1c(Cl)cccc1Cl [NSAIDS, Diclofenac sodium salt, reference compound]
- left hindpaw withdrawal threshold (contralateral, mirror pain), persistence of higher threshold ([1]; 5 mg/kg i.p. daily, 7-14 days post-operation, compared to saline group): does not sustain
- left hindpaw withdrawal threshold (contralateral, mirror pain) ([1]; 5 mg/kg i.p. daily, 3 days after surgery, compared to saline group): higher (although not significant)
